Test results reported in patent US20180362491A1, “STEREOISOMER OF FLOCOUMAFEN, COMPOSITION AND RODENTICIDE BAIT COMPRISING SAME, AND METHOD FOR CONTROLLING TARGET RODENT PESTS” (priority 2015, published 2018).

Type: in vivo, rat
Conditions: male and female rats, D+1 to D+7 after oral tube-feeding
Description: The configurational stereoisomers of flocoumafen are separated by high-pressure liquid chromatography using a LUX® Cellulose-4 chiral column (00F-4490-B0, Phenomenex, Le Pecq, France) as stationary phase and a mixture formed from acetonitrile (A) and water comprising 0.1% by volume of formic acid (B), with an AB volume ratio of 92/8, as mobile phase with a flow rate of the liquid mobile phase in the chromatography column of 0.25 mL/minute. 1 μL of extract comprising flocoumafen at a concentration of 1 μg/mL of acetonitrile is injected. Detection is performed by tandem mass spectrometry (MS/MS) in negative electrospray ionization (ESI) mode. The temperature of the nebulizer gas is 350° C. and its flow rate is 8 L/minute. The pressure of the nebulizer gas is brought to 2700 hPa. In particular, the MRM (“Multiple Reaction Monitoring”) transitions m/z 541.1→382.1 and m/z 541.1→161, corresponding to the flocoumafen signal, are detected.
About 0.525 g(±0.025 g) of rat liver is weighed out accurately and placed in a 50 mL polypropylene tube. 10 mL of acetone are added and the suspension is homogenized using an UltraTurrax® homogenizer/disperser for a time of about 30 seconds. The homogenizer/disperser shaft is rinsed with hot water and then twice with 20 mL of acetone in a polypropylene tube. […]

## O=c1oc2ccccc2c(O)c1C1CC(c2ccc(OCc3ccc(C(F)(F)F)cc3)cc2)Cc2ccccc21 (single isomer, unassigned) [Enantiomer E3, flocoumafen]
  Persistence in the liver (in words, relative to enantiomer E4 and flocoumafen): lower than the persistence of enantiomer E4 of said diastereoisomer D1,4 and lower than the persistence of flocoumafen
